Measurements published in patent US11899025B2, “Pharmaceutical composition for preventing or treating neurodegenerative diseases comprising COX2 acetylating agent as active ingredient” (KYUNGPOOK NATIONAL UNIVERSITY INDUSTRY-ACADEMIC COOPERATION …, priority 2018, dated 2024).

What was measured:
[1] = target: T1, COX2 (Mus musculus, UniProt Q05769); assay: COX2 acetylation analysis with [14C]N-acetyl sphingosine; format: cell-based; settings: 2 uCi [14C]N-acetyl sphingosine; FIG. 8c
T1 construct: endogenous in cells; host or cells: primary neurons from mouse cerebrum
T1 sequence (Q05769 18-604): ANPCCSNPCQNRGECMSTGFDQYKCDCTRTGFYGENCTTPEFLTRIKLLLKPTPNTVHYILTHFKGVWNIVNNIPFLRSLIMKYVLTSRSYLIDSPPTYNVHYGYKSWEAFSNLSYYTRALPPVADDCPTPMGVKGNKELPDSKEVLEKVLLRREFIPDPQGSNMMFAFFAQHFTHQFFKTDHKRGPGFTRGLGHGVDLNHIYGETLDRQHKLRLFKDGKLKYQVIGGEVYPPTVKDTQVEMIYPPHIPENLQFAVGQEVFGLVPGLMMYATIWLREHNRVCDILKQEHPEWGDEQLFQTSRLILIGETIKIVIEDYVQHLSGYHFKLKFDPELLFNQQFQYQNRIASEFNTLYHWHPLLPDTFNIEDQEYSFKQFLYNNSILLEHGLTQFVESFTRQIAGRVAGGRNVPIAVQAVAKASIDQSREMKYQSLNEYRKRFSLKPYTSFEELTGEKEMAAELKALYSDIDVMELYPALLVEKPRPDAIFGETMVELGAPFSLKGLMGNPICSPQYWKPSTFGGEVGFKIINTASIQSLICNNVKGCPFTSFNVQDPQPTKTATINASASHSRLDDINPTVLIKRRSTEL
Method: In order to measure the neuroinflammatory resolution factor, after culturing neurons from mouse cerebrum, CM was prepared by treatment with 10 nM N-acetyl sphingosine 1 phosphate (Toronto Research chemicals, C262710) and N-acetyl sphingosine (Sigma, 01912). For COX2 acetylation analysis, neurons were cultured from mouse cerebrum and then treated with 2 uCi [^14C]N-acetyl sphingosine (ARC, ARC1024). In addition, for in vivo experiments, 7-month-old APP/PS1 mice were injected with 5 mg/kg N-acetyl sphingosine (Sigma, 01912), 1 mg/kg FTY720 and 3 uM S1P daily for 4 weeks via intraperitoneal injection. 1 month-old NPC mice were injected with 5 mg/kg N-acetyl sphingosine (Sigma, 01912) and 2-month-old FUS mice with 30 mg/kg N-acetyl sphingosine (Sigma, 01912) daily for 4 weeks via subcutaneous injection.
Next, it was confirmed using N-acetyl sphingosine with C^14 attached to confirm whether the secretion of the neuroinflammatory resolution factor by the compounds was due to the increase in COX2 acetylation,
In addition, it was confirmed that serine 565 (S565) against the COX2 peptide 560-[…]-575 was acetylated in the presence of N-acetyl sphingosine (FIG. 8d).

[2] = tested on: FUS R521C mice; assay: amyotrophic lateral sclerosis animal model (FUS R521C mice): immunofluorescence, Tail suspension, Rota-rod, Hanging wired test; format: in vivo, mouse; settings: 2-month-old FUS mice, 30 mg/kg daily for 4 weeks, subcutaneous
Excerpt: It has been approved for mouse experiments by the Kyungpook National University Institutional Animal Care and Use Committee (IACUC). A transgenic mouse line overexpressing APPswe (hAPP695swe) or PS1 (presenilin-1M146V) based on C57BL/6 mice (Charles River, UK) was used. [Hereinafter, APP mouse: mouse overexpressing APPswe, PS1 mouse: mouse overexpressing presenilin-1M146V; GlaxoSmithKline]. As an Alzheimer's (AD) animal model, SphK1 tg (SphK1 gene overexpressing mouse) was crossed with APP mice and APP/PS1 mice to prepare APP/PS1/SphK1 tg mice. Niemanpick (NP-C) animal model, Balb/C (Orient, Wild type), NPC mutant mouse lacking NPC1 gene (Provided by Riken, Japan, NP-C mice; less weight than normal mice of the same age, and severe motor function loss from 4 to 6 weeks of age, limb tremors and seizures appear, and lifespan is approximately 9 to 10 weeks. Is) was used. As an animal model for amyotrophic lateral sclerosis (ALS), a transgenic mouse (FUS) line overexpressing RUS R521C based on C57BL/6 mice (Charles River, UK) was used.
After fixing the cerebral and hippocampus of the mouse, anti-20G10 (mouse, 1:1000) against amyloid-β (Aβ) 42 and anti-G30 (rabbit, 1:1000) against Aβ 40, anti-MAP2 (chicken, 1:2000), anti-Synaptophysin (mouse, 1:100), anti-Synapsin1 (rabbit, 1:500), anti-PSD95 (mouse, 1:100), anti-Iba-1 (rabbit, 1:500), Anti-GFAP (rabbit, 1:500) was cultured together. The site was analyzed using a laser scanning confocal microscope or Olympus BX51 microscope equipped with Fluoview SV1000 imaging software (Olympus FV1000, Japan). Metamorph software (Molecular Devices) was used to quantify the percentage of the area of the stained area relative to the area of the total tissue.
To check the motor ability of each experimental group mice, a Rota-rod, Beam test, Tail suspension test, and Hanging wired test were performed. […] The endurance time of the experimental animal was measured in seconds, and the average value was recorded. […] In the Beam test, the time taken to move to the end point after placing the mouse at the start point of a 12 mm wide bar was measured. […]

- COX2 acetylation compared with the sample of SphK1, acetyl-CoA and sphingosine [1]: more acetylation
Structure (SMILES): CCCCCCCCCCCCC/C=C/[C@@H](O)[C@H](CO)NC(C)=O [N-acetyl sphingosine]
- activity of microglia (Iba1) vs FUS R521C mice ([2]; FIG. 11a): decreased
- activity of astrocytes (GFAP) vs FUS R521C mice ([2]; FIG. 11b): decreased
- exercise capacity (Tail suspension, Rota-rod, Hanging wired test) vs FUS R521C mice ([2]; FIGS. 11c to e): improved
